In ChEMBL document CHEMBL3044541, “Control of crown rot-causing fungal pathogens of banana by inorganic salts and a surfactant” (Crop Prot, 2007):
Activity calls are given as the source filed them. The rule behind the calls is not given here.

Tests used:
[1] = system: Musa acuminata AAA Group; assay: Phytotoxicity against Musa acuminata AAA Group (Cavendish banana) assessed as skin burn incubated for 15 min followed by compound washout measured after 1 to 3 weeks in presence of surfactant APSA 80 relative to control; type: organism-based; settings: in vivo
[2] = system: Thielaviopsis paradoxa; assay: Growth inhibition of Ceratocystis paradoxa assessed as inhibition of mycelial growth up to 160 g/l incubated for 15 min followed by compound washout measured after 7 days in absence of surfactant APSA 80; type: functional, organism-based
[3] = system: Lasiodiplodia theobromae; assay: Growth inhibition of Lasiodiplodia theobromae assessed as inhibition of mycelial growth up to 160 g/l incubated for 15 min followed by compound washout measured after 7 days in presence of surfactant APSA 80; type: functional, organism-based
[4] = system: Fusarium verticillioides; assay: Antifungal activity against Fusarium verticillioides assessed as inhibition of conidium germination at 6 g/l incubated for 15 min followed by compound washout measured after 2 days by microscopic analysis in absence of surfactant APSA 80; type: functional, organism-based
[5] = system: Lasiodiplodia theobromae; assay: Antifungal activity against Lasiodiplodia theobromae assessed as inhibition of conidium germination at 6 g/l incubated for 15 min followed by compound washout measured after 2 days by microscopic analysis in absence of surfactant APSA 80; type: functional, organism-based
[6] = system: Colletotrichum musae; assay: Growth inhibition of Colletotrichum musae assessed as inhibition of mycelial growth up to 160 g/l incubated for 15 min followed by compound washout measured after 7 days in presence of surfactant APSA 80; type: functional, organism-based
[7] = system: Fusarium verticillioides; assay: Antifungal activity against Fusarium verticillioides assessed as inhibition of conidium germination at 6 g/l incubated for 15 min followed by compound washout measured after 7 days by microscopic analysis in presence of surfactant APSA 80; type: functional, organism-based
[8] = system: Colletotrichum musae; assay: Antifungal activity against Colletotrichum musae assessed as inhibition of conidium germination at 6 g/l incubated for 15 min followed by compound washout measured after 7 days by microscopic analysis in presence of surfactant APSA 80; type: functional, organism-based
[9] = system: Colletotrichum musae; assay: Antifungal activity against Colletotrichum musae assessed as inhibition of conidium germination at 6 g/l incubated for 15 min followed by compound washout measured after 2 days by microscopic analysis in absence of surfactant APSA 80; type: functional, organism-based
[10] = system: Musa acuminata AAA Group; assay: Phytotoxicity against Musa acuminata AAA Group (Cavendish banana) assessed as discoloration incubated for 15 min followed by compound washout measured after 1 to 3 weeks in presence of surfactant APSA 80 relative to control; type: organism-based; settings: in vivo
[11] = system: Thielaviopsis paradoxa; assay: Antifungal activity against Ceratocystis paradoxa assessed as inhibition of conidium germination at 6 g/l incubated for 15 min followed by compound washout measured after 7 days by microscopic analysis in presence of surfactant APSA 80; type: functional, organism-based
[12] = system: Lasiodiplodia theobromae; assay: Antifungal activity against Lasiodiplodia theobromae assessed as inhibition of conidium germination at 6 g/l incubated for 15 min followed by compound washout measured after 7 days by microscopic analysis in presence of surfactant APSA 80; type: functional, organism-based
[13] = system: Fusarium verticillioides; assay: Growth inhibition of Fusarium verticillioides assessed as inhibition of mycelial growth up to 160 g/l incubated for 15 min followed by compound washout measured after 7 days in presence of surfactant APSA 80; type: functional, organism-based
[14] = system: Thielaviopsis paradoxa; assay: Antifungal activity against Ceratocystis paradoxa assessed as inhibition of conidium germination at 6 g/l incubated for 15 min followed by compound washout measured after 2 days by microscopic analysis in absence of surfactant APSA 80; type: functional, organism-based
[15] = system: Thielaviopsis paradoxa; assay: Antifungal activity against Ceratocystis paradoxa assessed as inhibition of conidium germination at 5 g/l incubated for 15 min followed by compound washout measured after 2 days by microscopic analysis in absence of surfactant APSA 80; type: functional, organism-based
[16] = system: Fusarium verticillioides; assay: Antifungal activity against Fusarium verticillioides assessed as inhibition of conidium germination at 5 g/l incubated for 15 min followed by compound washout measured after 7 days by microscopic analysis in presence of surfactant APSA 80; type: functional, organism-based
[17] = system: Colletotrichum musae; assay: Antifungal activity against Colletotrichum musae assessed as inhibition of conidium germination at 5 g/l incubated for 15 min followed by compound washout measured after 7 days by microscopic analysis in presence of surfactant APSA 80; type: functional, organism-based
[18] = system: Lasiodiplodia theobromae; assay: Growth inhibition of Lasiodiplodia theobromae assessed as concentration required for inhibition of mycelial growth incubated for 15 min followed by compound washout measured after 7 days in presence of surfactant APSA 80; type: functional
[19] = system: Lasiodiplodia theobromae; assay: Antifungal activity against Lasiodiplodia theobromae assessed as inhibition of conidium germination at 5 g/l incubated for 15 min followed by compound washout measured after 2 days by microscopic analysis in absence of surfactant APSA 80; type: functional, organism-based
[20] = system: Colletotrichum musae; assay: Growth inhibition of Colletotrichum musae assessed as concentration required for inhibition of mycelial growth incubated for 15 min followed by compound washout measured after 7 days in presence of surfactant APSA 80; type: functional
[21] = system: Fusarium verticillioides; assay: Antifungal activity against Fusarium verticillioides assessed as inhibition of conidium germination at 5 g/l incubated for 15 min followed by compound washout measured after 2 days by microscopic analysis in absence of surfactant APSA 80; type: functional, organism-based
[22] = system: Lasiodiplodia theobromae; assay: Antifungal activity against Lasiodiplodia theobromae assessed as inhibition of conidium germination at 5 g/l incubated for 15 min followed by compound washout measured after 7 days by microscopic analysis in presence of surfactant APSA 80; type: functional, organism-based
[23] = system: Thielaviopsis paradoxa; assay: Antifungal activity against Ceratocystis paradoxa assessed as inhibition of conidium germination at 5 g/l incubated for 15 min followed by compound washout measured after 7 days by microscopic analysis in presence of surfactant APSA 80; type: functional, organism-based
[24] = system: Fusarium verticillioides; assay: Growth inhibition of Fusarium verticillioides assessed as concentration required for inhibition of mycelial growth incubated for 15 min followed by compound washout measured after 7 days in absence of surfactant APSA 80; type: functional
[25] = system: Colletotrichum musae; assay: Growth inhibition of Colletotrichum musae assessed as concentration required for inhibition of mycelial growth incubated for 15 min followed by compound washout measured after 7 days in absence of surfactant APSA 80; type: functional
[26] = system: Lasiodiplodia theobromae; assay: Growth inhibition of Lasiodiplodia theobromae assessed as concentration required for inhibition of mycelial growth incubated for 15 min followed by compound washout measured after 7 days in absence of surfactant APSA 80; type: functional

Q: Which results are given for `[Cl-].[Na+]` [SODIUM CHLORIDE]?
A: Activity [1]: Toxic; Activity [2]: inactive; Activity [3]: inactive; inhibition [4]: Active; inhibition [5]: Active; Activity [6]: inactive; inhibition [7]: Active; inhibition [8]: Active; inhibition [9]: Active; Activity [10]: Toxic; inhibition [11]: Active; inhibition [12]: Active; Activity [13]: inactive; inhibition [14]: Active

Q: With `[Ca+2].[Cl-].[Cl-]` [CALCIUM CHLORIDE] as the molecule, how does the inhibition [15] read?
A: Active

Q: What about the inhibition [16] of the same molecule?
A: Active

Q: And the Activity [2]?
A: inactive

Q: What about the inhibition [17] of the same molecule?
A: Active

Q: What about the Activity [18] of the same molecule?
A: 100 g/L

Q: What about the inhibition [19] of the same molecule?
A: Active

Q: What about the Activity [20] of the same molecule?
A: 140 g/L

Q: And the inhibition [21]?
A: Active

Q: And the inhibition [22]?
A: Active

Q: And the Activity [13]?
A: inactive

Q: And the inhibition [23]?
A: Active

Q: For `[Na+].[O-]Cl` [SODIUM HYPOCHLORITE], which Activity [1] is on record?
A: Toxic

Q: And the inhibition [15]?
A: Active

Q: What about the inhibition [16] of the same molecule?
A: Active

Q: What about the Activity [24] of the same molecule?
A: 70 g/L

Q: And the inhibition [17]?
A: Active

Q: What about the Activity [18] of the same molecule?
A: 20 g/L

Q: What about the inhibition [19] of the same molecule?
A: Active

Q: And the Activity [10]?
A: Toxic

Q: What about the Activity [25] of the same molecule?
A: 50 g/L

Q: And the Activity [26]?
A: 20 g/L

Q: And the inhibition [21]?
A: Active

Q: And the inhibition [22]?
A: Active

Q: And the inhibition [23]?
A: Active
